Test results as given in patent US11186564B2, “Dual NAV1.2/5HT2a inhibitors for treating CNS disorders” (Sunovion Pharmaceuticals Inc., priority 2016, dated 2021).
Read-outs that look alike come from different tables or passages of the source.

Experiments:
[1] = biological target: T1, recombinant human serotonin receptor 5-HT2A (Homo sapiens, UniProt P28223); experiment: 5-HT2A antagonist Ca2+ assay in CHO-K1 cells (method A aequorin luminescence / method B FLIPR fluorescence); assay type: cell-based; settings: antagonist mode vs EC80 of reference agonist, method A or B
T1 construct: expressed in transfected cells; method B: loaded with Ca2+ dye
How it was run: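 Method A: CHO-K1 cells co-expressing human 5-HT2A and mitochondrial apoaequorin were given reference agonist at EC80 15 min after compound, with luminescence read. Method B: dye-loaded 5-HT2A CHO-K1 cells were pretreated with compound, then given serotonin at EC80, with FLIPR fluorescence read. IC50s came from nonlinear fits of percent inhibition.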

[2] = biological target: human sodium channel NaV1.2 (Homo sapiens, UniProt Q99250); experiment: NaV1.2 inhibition, automated patch-clamp (Q-Patch HTX), slow inactivated state (state C); assay type: cell-based; settings: hNaV1.2 CHO cells, slow inactivated state; for IC50: read-out: NaV1.2 IC50; for inhibition at 1 µM: 1 μM compound, read-out: NaV1.2 (% inh), 1 μM; for inhibition at 10 µM: 10 μM compound, read-out: NaV1.2 (% inh), 10 μM
How it was run: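 CHO K-1 cells stably expressing human NaV1.2, whole-cell automated patch clamp, holding −100 mV; slow-inactivated state (state C) read at a 5 ms step to 0 mV after 10 s at −50 mV and 15 ms at −90 mV. Percent inhibition vs vehicle; IC50 by nonlinear least-squares fit.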

human sodium channel NaV1.2, sequence (Q99250 whole entry): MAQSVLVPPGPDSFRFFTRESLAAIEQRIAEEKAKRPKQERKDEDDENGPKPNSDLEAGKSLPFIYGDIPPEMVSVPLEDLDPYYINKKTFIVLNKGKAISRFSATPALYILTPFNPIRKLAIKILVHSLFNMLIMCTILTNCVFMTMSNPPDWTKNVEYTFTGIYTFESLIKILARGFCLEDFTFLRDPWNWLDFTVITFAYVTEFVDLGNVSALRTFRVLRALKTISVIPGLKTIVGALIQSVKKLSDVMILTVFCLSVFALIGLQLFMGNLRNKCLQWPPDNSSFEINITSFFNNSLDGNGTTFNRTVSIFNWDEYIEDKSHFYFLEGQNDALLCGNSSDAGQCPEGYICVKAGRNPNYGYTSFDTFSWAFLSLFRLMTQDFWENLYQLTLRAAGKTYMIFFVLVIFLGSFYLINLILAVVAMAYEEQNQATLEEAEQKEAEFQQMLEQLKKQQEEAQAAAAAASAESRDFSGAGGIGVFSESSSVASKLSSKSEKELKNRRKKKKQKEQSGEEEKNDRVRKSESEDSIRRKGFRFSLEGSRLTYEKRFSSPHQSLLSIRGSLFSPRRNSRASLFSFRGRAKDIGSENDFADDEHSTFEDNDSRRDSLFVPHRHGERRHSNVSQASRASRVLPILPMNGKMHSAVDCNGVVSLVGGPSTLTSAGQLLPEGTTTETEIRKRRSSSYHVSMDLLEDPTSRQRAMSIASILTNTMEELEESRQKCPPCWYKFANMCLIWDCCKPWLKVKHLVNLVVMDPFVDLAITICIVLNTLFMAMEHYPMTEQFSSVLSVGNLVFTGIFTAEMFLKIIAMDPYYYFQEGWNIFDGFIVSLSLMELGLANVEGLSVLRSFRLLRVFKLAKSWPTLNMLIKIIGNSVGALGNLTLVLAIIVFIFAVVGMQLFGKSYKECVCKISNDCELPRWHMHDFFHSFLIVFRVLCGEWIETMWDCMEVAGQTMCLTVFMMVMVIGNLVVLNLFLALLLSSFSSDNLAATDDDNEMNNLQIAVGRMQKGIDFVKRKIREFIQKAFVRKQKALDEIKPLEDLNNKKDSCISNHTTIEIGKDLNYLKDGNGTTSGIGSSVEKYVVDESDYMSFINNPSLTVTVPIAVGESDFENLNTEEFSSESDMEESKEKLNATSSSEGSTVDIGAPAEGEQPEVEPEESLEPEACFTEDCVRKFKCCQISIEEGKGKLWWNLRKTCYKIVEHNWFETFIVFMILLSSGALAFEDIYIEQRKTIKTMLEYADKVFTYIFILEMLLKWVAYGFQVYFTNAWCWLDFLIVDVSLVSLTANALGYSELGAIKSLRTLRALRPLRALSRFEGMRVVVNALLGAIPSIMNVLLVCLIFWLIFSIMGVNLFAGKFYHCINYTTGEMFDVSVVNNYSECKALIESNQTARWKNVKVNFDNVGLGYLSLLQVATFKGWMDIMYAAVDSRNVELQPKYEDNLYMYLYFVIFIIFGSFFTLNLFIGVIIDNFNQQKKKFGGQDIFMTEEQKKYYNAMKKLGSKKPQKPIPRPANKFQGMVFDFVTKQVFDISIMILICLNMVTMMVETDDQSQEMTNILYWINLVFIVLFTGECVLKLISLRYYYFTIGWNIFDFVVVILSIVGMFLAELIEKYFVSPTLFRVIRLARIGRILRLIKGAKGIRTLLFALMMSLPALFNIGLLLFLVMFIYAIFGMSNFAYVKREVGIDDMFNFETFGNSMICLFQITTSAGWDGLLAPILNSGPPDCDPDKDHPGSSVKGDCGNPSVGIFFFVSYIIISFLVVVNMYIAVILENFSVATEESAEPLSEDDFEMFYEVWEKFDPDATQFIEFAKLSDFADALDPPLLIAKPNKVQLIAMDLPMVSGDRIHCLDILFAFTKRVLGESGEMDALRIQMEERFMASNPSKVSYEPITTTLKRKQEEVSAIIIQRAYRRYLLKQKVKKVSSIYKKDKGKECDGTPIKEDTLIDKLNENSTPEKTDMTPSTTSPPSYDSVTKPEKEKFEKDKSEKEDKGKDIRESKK
T1 sequence (P28223 whole entry): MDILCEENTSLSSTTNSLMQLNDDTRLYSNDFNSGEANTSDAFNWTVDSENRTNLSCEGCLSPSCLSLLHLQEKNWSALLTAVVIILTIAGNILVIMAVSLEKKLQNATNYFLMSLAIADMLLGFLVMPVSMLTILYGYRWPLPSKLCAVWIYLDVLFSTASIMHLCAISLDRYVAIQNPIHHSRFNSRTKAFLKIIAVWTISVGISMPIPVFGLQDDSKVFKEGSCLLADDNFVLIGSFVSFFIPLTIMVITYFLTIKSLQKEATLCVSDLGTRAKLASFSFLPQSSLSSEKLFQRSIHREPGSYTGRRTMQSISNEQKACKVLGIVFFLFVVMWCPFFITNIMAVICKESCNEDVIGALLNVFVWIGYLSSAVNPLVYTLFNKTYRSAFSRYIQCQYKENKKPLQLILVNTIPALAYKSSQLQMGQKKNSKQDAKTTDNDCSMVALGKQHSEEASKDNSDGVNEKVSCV

Row | inhibition at 1 µM [2] [%] | inhibition at 10 µM [2] [%] | SMILES | IC50 ([1]; read-out: 5HT2A IC50) [µM] | IC50 [2] [nM] | IC50 ([1]; 5HT2A IC50, μM) [µM]
1 |  |  | c1ccc(N2C[C@@H]3C[C@H]2CN3CC2CCc3ccccc32)cc1 (stereo partly drawn) [Example 303, (1S,4S)-2-((2,3-dihydro-1H-inden-1-yl)methyl)-5-phenyl-2,5-diazabicyclo[2.2.1]heptane] | 2.6 | 1820 | 
2 |  |  | N#Cc1cccc2c1CCC2CN1CCC(Oc2ccc(F)cc2)CC1 (centres unmarked) [Example 122, 1-((4-(4-fluorophenoxy)piperidin-1-yl)methyl)-2,3-dihydro-1H-indene-4-carbonitrile] | 0.09 | 110 | 
3 |  |  | Cc1cccc(N2CCN(CC(O)COC3COc4cccnc43)CC2)c1C (centres unmarked) [Example 82, 1-((2,3-dihydrofuro[3,2-b]pyridin-3-yl)oxy)-3-(4-(2,3-dimethylphenyl)piperazin-1-yl)propan-2-ol] | 0.04 | 1350 | 
4 | 41 |  | Fc1ccc(OC2CCN(CCC3COc4ccccc43)CC2)cc1 (centres unmarked) [Example 176, 1-(2-(2,3-dihydrobenzofuran-3-yl)ethyl)-4-(4-fluorophenoxy)piperidine] | 0.08 |  | 
5 |  |  | Fc1ccc(N2CCC3(CCN(CC4Cc5cccnc5C4)C3)C2)cc1 (centres unmarked) [Example 339, 2-((6,7-dihydro-5H-cyclopenta[b]pyridin-6-yl)methyl)-7-(4-fluorophenyl)-2,7-diazaspiro[4.4]nonane] | 0.87 | 2270 | 
6 |  | 73 | O=C1c2ccccc2CCN1CCN1CCC(Oc2ccc(F)cc2)CC1 [Example 200, 2-(2-(4-(4-fluorophenoxy)piperidin-1-yl)ethyl)-3,4-dihydroisoquinolin-1(2H)-one] | 0.01 |  | 
7 | 9 |  | OC1(c2ccccc2)COC2(CCN(CC3CCc4ccccc43)CC2)C1 (centres unmarked) [Example 374, 8-((2,3-dihydro-1H-inden-1-yl)methyl)-3-phenyl-1-oxa-8-azaspiro[4.5]decan-3-ol] | 0.25 |  | 
8 |  | 48 | OC(COC1CCCCC1)CN1C[C@H]2C[C@@H]1CN(Cc1ccccc1)C2 (stereo partly drawn) [Example 318, 1-((1S,5R)-3-benzyl-3,6-diazabicyclo[3.2.1]octan-6-yl)-3-(cyclohexyloxy)propan-2-ol] | > 5.3 |  | 
9 | 52 |  | COc1ccccc1O[C@@H]1CCN(CCC2CCOc3ccccc32)[C@@H](C)C1 (stereo partly drawn) [Example 182, (2S,4R)-1-(2-(chroman-4-yl)ethyl)-4-(2-methoxyphenoxy)-2-methylpiperidine] | 0.2 |  | 
10 |  |  | Cc1cccc(N2CCN(CC(O)COC3(C)COc4ccccc43)CC2)c1C (centres unmarked) [Example 81, 1-(4-(2,3-dimethylphenyl)piperazin-1-yl)-3-((3-methyl-2,3-dihydrobenzofuran-3-yl)oxy)propan-2-ol] | 0.03 | 160 | 
11 | 31 |  | CN1CCN(CC2CCc3ccccc32)CC(Oc2ccc(F)cc2)C1 (centres unmarked) [Example 277, 1-((2,3-dihydro-1H-inden-1-yl)methyl)-6-(4-fluorophenoxy)-4-methyl-1,4-diazepane] | 0.1 |  | 
12 |  | 52 | NCCOc1ccc2c(c1)C(CN1CCC(Oc3ccc(F)cc3)CC1)CC2 (centres unmarked) [Example 114, 2-((3-((4-(4-fluorophenoxy)piperidin-1-yl)methyl)-2,3-dihydro-1H-inden-5-yl)oxy)ethan-1-amine] | 0.07 |  | 
13 |  | 88 | COc1cccc(CCCN2CCC(Oc3ccccc3)CC2)c1 [Example 225, 1-(3-(3-methoxyphenyl)propyl)-4-phenoxypiperidine] | 0.25 |  | 
14 |  | 85 | N#Cc1ccc(OCCN2CCN(c3nsc4ccccc34)CC2)cc1 [Example 67, 4-(2-(4-(benzo[d]isothiazol-3-yl)piperazin-1-yl)ethoxy)benzomtnle] | 0.01 |  | 
15 |  |  | O[C@H](CO[C@@H]1CCCc2ccccc21)CN1CC[C@@H](Oc2ccc(F)cc2)C1 [Example 52, (S)-1-((R)-3-(4-fluorophenoxy)pyrrolidin-1-yl)-3-(((R)-1,2,3,4-tetrahydronaphthalen-1-yl)oxy)propan-2-ol] | 0.14 | 1690 | 
16 |  |  | COc1ccccc1N1CCN(CC(O)COc2cccc3ccccc23)CC1 (centres unmarked) [Example 92, 1-(4-(2-methoxyphenyl)piperazin-1-yl)-3-(naphthalen-1-yloxy)propan-2-ol] | 0.23 | 10 | 
17 | 4 |  | O=C1c2ccccc2CCN1CCN1C[C@@H]2C[C@H]1CN2c1ccccc1 [Example 304, 2-(2-((1S,4S)-5-phenyl-2,5-diazabicyclo[2.2.1]heptan-2-yl)ethyl)-3,4-dihydroisoquinolin-1(2H)-one] | 7.05 |  | 
18 |  |  | Fc1ccc(OC2CCN(CC3CCc4ccccc43)CC2)cc1 (centres unmarked) [Example 112, 1-((2,3-dihydro-1H-inden-1-yl)methyl)-4-(4-fluorophenoxy)piperidine] | 0.004 | 1440 | 

Row | inhibition at 1 µM [2] [%] | inhibition at 10 µM [2] [%] | SMILES | IC50 ([1]; read-out: 5HT2A IC50) [µM] | IC50 [2] [nM] | IC50 ([1]; 5HT2A IC50, μM) [µM]
19 |  |  | c1ccc2c(c1)CCC1(CCN(CCC3CCc4ccccc43)CC1)O2 (centres unmarked) [Example 418, 1′-(2-(2,3-dihydro-1H-inden-1-yl)ethyl)spiro[chromane-2,4′-piperidine]] | 0.16 | 1130 | 
20 |  |  | OC(CO[C@H]1CCc2ccccc21)CN1CCC(Oc2ccc(F)cc2)CC1 (stereo partly drawn) [Example 235, 1-(((S)-2,3-dihydro-1H-inden-1-yl)oxy)-3-(4-(4-fluorophenoxy)piperidin-1-yl)propan-2-ol] | 0.19 | 340 | 
21 |  |  | OC(COC1CCCCC1)CN1[C@@H]2CC[C@H]1CN(c1ccccc1)C2 (stereo partly drawn) [Example 286, 1-(cyclohexyloxy)-3-((1R,5S)-3-phenyl-3,8-diazabicyclo[3.2.1]octan-8-yl)propan-2-ol] |  | 1250 | 0.01
22 |  | 94 | COc1cccc(CN2CCC3(CCc4ccccc4O3)CC2)c1 [Example 417, 1′-(3-methoxybenzyl) spiro[chromane-2,4′-piperidine]] | 0.69 |  | 
23 |  | 68 | O=C1c2ccccc2CCCN1CCCN1CCC(Oc2ccc(F)cc2)CC1 [Example 223, 2-(3-(4-(4-fluorophenoxy)piperidin-1-yl)propyl)-2,3,4,5-tetrahydro-1H-benzo[c]azepin-1-one] | 0.03 |  | 
24 |  |  | COc1ccccc1OC1CCN(CC2c3ccccc3OC2(C)C)CC1 (centres unmarked) [Example 129, 1-((2,2-dimethyl-2,3-dihydrobenzofuran-3-yl)methyl)-4-(2-methoxyphenoxy)piperidine] | 0.4 | 1060 | 
25 |  |  | O=C1c2cc(Cl)ccc2CCCN1CCN1CCC(Oc2ccc(F)cc2)CC1 [Example 209, 8-chloro-2-(2-(4-(4-fluorophenoxy)piperidin-1-yl)ethyl)-2,3,4,5-tetrahydro-1H-benzo[c]azepin-1-one] | 0.02 | 270 | 
26 |  |  | c1ccc(O[C@H]2COC3(C2)CN(C[C@@H]2CCc4ccccc42)C3)cc1 (single isomer, unassigned) [Compound 367] | 0.28 | 390 | 
27 |  |  | COc1ccc2c(c1)C(CN1CC3CCC1CN3c1ccccc1)CC2 (single isomer, unassigned) [Example 310] | 0.03 | 700 | 
28 | 37 |  | c1ccc2c(c1)CC1(CCN(CC3CCc4ccccc43)CC1)CO2 (centres unmarked) [Example 442, 1′-((2,3-dihydro-1H-inden-1-yl)methyl)spiro[chromane-3,4′-piperidine]] | 0.59 |  | 
29 |  | 55 | O=C(CN1CCN(c2cccc(Cl)c2)CC1)c1ccccc1 [Example 66, 2-(4-(3-chlorophenyl)piperazin-1-yl)-1-phenylethan-1-one] | 0.89 |  | 
30 |  |  | Fc1ccc(COC2CCN(CC3CCOc4ccccc43)CC2)cc1 (centres unmarked) [Example 249, 1-(chroman-4-ylmethyl)-4-((4-fluorobenzyl)oxy)piperidine] | 0.21 | 630 | 
31 | 37 |  | c1ccc2c(c1)CCC1(CCN(CC3Cc4cccnc4C3)CC1)O2 (centres unmarked) [Example 411, 1′-((6,7-dihydro-5H-cyclopenta[b]pyridin-6-yl)methyl)spiro[chromane-2,4′-piperidine]] | 1.2 |  | 
32 |  |  | c1ccc(OC2CCN(CCC3COCc4ccccc43)CC2)cc1 (centres unmarked) [Example 179, 1-(2-(isochroman-4-yl)ethyl)-4-phenoxypiperidine] | 0.06 | 610 | 
33 | 14 |  | c1ccc2c(c1)CCC2CN1CCC2(CCc3cnccc3O2)CC1 (centres unmarked) [Example 404, 1-((2,3-dihydro-1H-inden-1-yl)methyl)-3′,4′-dihydrospiro[piperidine-4,2′-pyrano[3,2-c]pyridine]] | 0.11 |  | 
34 |  |  | C1=C(c2ccccc2)COC12CN(CC1CCc3ccccc31)C2 (centres unmarked) [Example 358, 2-((2,3-dihydro-1H-inden-1-yl)methyl)-7-phenyl-5-oxa-2-azaspiro[3.4]oct-7-ene] | 0.87 | > 10000 | 
35 |  |  | c1ccc(O[C@@H]2COC3(CCN(C[C@H]4CCc5ccccc54)CC3)C2)cc1 (single isomer, unassigned) [Compound 384] | 0.3 | 290 | 

Row | SMILES | inhibition at 1 µM [2] [%] | inhibition at 10 µM [2] [%] | IC50 ([1]; read-out: 5HT2A IC50) [µM] | IC50 [2] [nM] | IC50 ([1]; 5HT2A IC50, μM) [µM]
36 | c1ccc(N2[C@@H]3CC[C@H]2CN(CC2CCc4ccccc42)C3)cc1 (stereo partly drawn) [Example 295, (1R,5S)-3-((2,3-dihydro-1H-inden-1-yl)methyl)-8-phenyl-3,8-diazabicyclo[3.2.1]octane] | 2 |  | > 16.7 |  | 
37 | O[C@@H](CO[C@H]1CCCc2ccccc21)CN1CCN(Cc2ccccc2)CC1 [Example 85, (R)-1-(4-benzylpiperazin-1-yl)-3-(((S)-1,2,3,4-tetrahydronaphthalen-1-yl)oxy)propan-2-ol] | 24 |  | > 11.9 |  | 
